We go through 4 molecules from patent US20220264878A1, “HERBICIDAL COMPOSITION CONTAINING R-TYPE PYRIDYLOXY CARBOXYLIC ACID DERIVATIVE AND USE THEREOF” (Qingdao Kingagroot Chemical Compound Co., Ltd., priority 2019, published 2022).

Common to all, as to type: in vivo
The test system of one test is Acalypha australis. In words: Post-emergence foliage spray, pot culture, fresh weight inhibition (Tables 1-48, 51-98, 101-148; 24 days). From the text:
(§1) Table 1-48, 51-98, 101-148: Echinochloa crusgalli var. zelayensis, Eclipta prostrate, Galium aparine L., Alopecurus aequalis, Alopecurus japonicus, Lindernia procumbens, Veronica persica^1, Malachium aquaticum, Beckmannia syzigachne, Stellaria media were collected in Huai'an of Jiangsu Province; Commelina communis, Sonchus arvensis, Setaria glauca, Chloris virgata, Setaria faberi, Sonchus oleraceus L., Echinochloa oryzoides, Cirsium setosum, Xanthium strumarium were collected in Qiqiha'er of Heilongjiang Province; Sinapis arvensis, Veronica persica^2 were collected in Zhumadian of Henan Province; Ludwigia prostrate, Ammannia arenaria were collected in Zhuji of Zhejiang Province; Amaranthus retrojlexus, Descurainia sophia, Digitaria sanguinalis, Setaria viridis, Conyza Canadensis, Capsella bursa-pastoris, Eleusine indica, Ipomoea purpurea, Abutilon theophrasti, Chenopodium album, Acalypha australis, Solanum nigrum were collected in Qingdao of Shandong Province; Echinochloa caudate were collected in Pingluo of Ningxia Province.
(§2) The above weeds were cultivated by a pot culture method. […] Full and uniform weed seeds were selected, soaked in warm water at 25° C. for 6 hours, and germinated in a 28° C. biochemical incubator (darkness). The weed seeds that had just germinatedwere evenly placed on the surface of the soil and then covered with 0.5-1 cm soil according to the sizes of seeds.
(§3) The culture was carried out in a controllable sunlight greenhouse at 20 to 30° C., in natural light, and relative humidity of 57% to 72%.
(§4) The technical materials were all dissolved in acetone, and diluted with an aqueous solution containing 0.1% emulsifier Tween-80. The dilution is performed as required.
(§5) A ratio of the active ingredient A to the active ingredient B and amounts thereof in each group depends on the characteristics and toxicity of the two agents, as well as the main application purpose of a corresponding formulation. Based on the pre-tests in this study, the dosage of the active ingredient A and B applied alone and in combination were shown in the tables. Water containing the solvent and emulsifier same with the above groups but free of the agents was used as a blank control.
(§6) Table 1-48, 51-98, 101-148, 151-206: […] per treatment, that is, a total of 60 weeds were treated in one treatment.
(§7) Table 1-48, 51-98, 101-148: The agents were used for only once in the experiment. In the stage of weeds with 3˜4 leaves, the weeds were thinned out to maintain 15 weeds per pot and 45 weeds for each treatment, then continued to be cultured to 5˜6 leaves stage of grassy weeds, 6˜7 leaves stage of broadleaf weeds, and treated.
(§8) The well-cultured weeds were evenly placed on a platform with an area of 0.5 m^2, and a solution of agents was sprayed on the stems and leaves thereof by the 3WP-2000-type walking spray tower at a dosage of 450 kg/ha and at a spray pressure of 0.3 MPa. After all the solution was sprayed, the valve was closed. After 30 seconds, the door of the spray tower was opened, and the nutritional bowl was taken out. Then the valve was opened, and the spray tube was cleaned by spraying 50 ml of water.
(§9) A pot-culture method was employed. For the cultivation of weeds, please refer to the Section 1.1), and “Pesticide guidelines for laboratory bioactivity tests—herbicides”. As to a method for applying agents, please refer to the section 2.3.2), that is, a foliage treatment was employed. After the treatment, the weeds were routinely cultured in a greenhouse.
(§10) A method for investigating absolute number was employed, wherein whole seedlings of survival weeds were cut off with a blade along the soil surface, and the fresh weight of the weeds was weighed with an analytical balance. For dead weeds, the fresh weight thereof was zero.
(§11) Table 1-48, 51-98, 101-148, 207-216: The investigation was performed after 24 days of the treatment for only once.

Test [1] has as its system Amaranthus retroflexus. The description is as above.
Source text: as §1, §2, §3, §4, §5, §6, §7, §8, §9, §10, §11

The subject of a further test is Chenopodium album. The test is described as above. Summed up:
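Pot-grown weeds were thinned to 15 per pot (45 per treatment) and sprayed on foliage at the 5–6-leaf stage for grasses or the 6–7-leaf stage for broadleaves. Agents were dissolved in acetone with 0.1% Tween-80 and applied at 450 kg/ha spray volume and 0.3 MPa. Plants were then kept in a greenhouse. Above-ground fresh weight of survivors, with dead plants counted as zero, gave inhibition versus a solvent/emulsifier blank.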

In a further test the test system is Alopecurus japonicus. In words: Post-emergence foliage spray, pot culture, fresh weight inhibition (Tables 151-206; 20 days). Summed up:
(§12)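 Field-collected weeds grown in pots in a greenhouse (20-30° C., natural light, 57-72% RH), 15 per pot, 3 pots × 4 replicates. Single foliar spray at 4-5 leaves (grasses) or 5-6 leaves (broadleaf) with acetone/0.1% Tween-80 dilutions at 450 kg/ha, 0.3 MPa. Above-ground fresh weight inhibition versus solvent blank at 20 days.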

For a further test, the system named is Digitaria sanguinalis. The test is described as above. As to conditions: Digitaria sanguinalis, 480 h, 20 days, read-out: Control effect (%) of A applied alone in corresponding dose; for pest or weed control at 75 g/ha: A 75 g a.i./ha; for pest or weed control at 150 g/ha: A 150 g a.i./ha. The essentials:
as §12

In a further test the test system is Sinapis arvensis. The test is described as above. The essentials: as §12
In a further test the test system is Eleusine indica. Described as above. The essentials: as §12
For another test, the system named is Veronica didyma. The description is as above. The essentials: as §12
In another test the test system is Conyza Canadensis. The test is described as above. The essentials:
as §12

The next test deals with Capsella bursa-pastoris. The test is described as above. As to conditions: Capsella bursa-pastoris, 480 h, read-out: Control effect (%) of A applied alone in corresponding dose. As for the experimental part: as §2, §4, §5
(§13) In the stage of weeds with 3˜4 leaves, the weeds were thinned out to maintain 15 weeds per pot and 45 weeds for each treatment, then continued to be cultured to 4˜5 leaves stage of grassy weeds, 5˜6 leaves stage of broadleaf weeds, and treated.
as §8, §9, §10
(§14) Wherein, in the formula, X represented the fresh weight inhibition rate of the active ingredient A in a dosage of P, and Y represented the fresh weight inhibition rate of the active ingredient B in a dosage of Q.

Test [2] relates to Amaranthus retroflexus. The test is described as above. As for the experimental part:
as §2, §4, §5, §13, §8, §9, §10, §14

Setting [3] is: A alone 75 g a.i./ha, 20 days after treatment.
Setting [4] is: A alone 150 g a.i./ha, 20 days after treatment.

Each structure is given as a SMILES string. Where two headings read alike, the source gives them in different places.

Consider `C#CCN1C(=O)COc2cc(F)c(N3C(=O)C4=C(CCCC4)C3=O)cc21` [flumioxazin], for which the “Control effect (%) of B applied alone in corresponding dose” value (“Control effect (%) of B applied alone” for short) with Acalypha australis (B 7.5 g a.i./ha) came out at 6.9%; with Acalypha australis (B 15 g a.i./ha) it was 13.7%; with Acalypha australis (B 30 g a.i./ha) it was 39.0%; in the test on Acalypha australis (B 60 g a.i./ha), 79.3%; with Amaranthus retroflexus [1] (flumioxazin 7.5 g a.i./ha), 5.5%; in the test on Amaranthus retroflexus [1] (flumioxazin 15 g a.i./ha), 12.4%. For the same molecule, the “Control effect (%) of B applied alone” value in the test with Amaranthus retroflexus [1] (flumioxazin 30 g a.i./ha) is 37.4%; in the test on Amaranthus retroflexus [1] (flumioxazin 60 g a.i./ha) it was 78.9%; in the test on Chenopodium album (Table 96, 7.5 g a.i./ha) it was 3.4%; in the test with Chenopodium album (Table 96, 15 g a.i./ha), 12.8%; in the test on Chenopodium album (Table 96, 30 g a.i./ha) it was 37.3%; in the test on Chenopodium album (Table 96, 60 g a.i./ha), 78.8%.
In the case of `O=C(O)c1cc(Oc2ccc(C(F)(F)F)cc2Cl)ccc1[N+](=O)[O-]` [acifluorfen-sodium], the “Control effect (%) of B applied alone” value stood at 5.8% with Acalypha australis (B 37.5 g a.i./ha); 11.6% with Acalypha australis (B 75 g a.i./ha); 46.6% with Acalypha australis (B 150 g a.i./ha); 85.3% with Acalypha australis (B 300 g a.i./ha); 4.4% with Amaranthus retroflexus [1] (acifluorfen-sodium 37.5 g a.i./ha); 10.3% in the test on Amaranthus retroflexus [1] (acifluorfen-sodium 75 g a.i./ha). Besides, the “Control effect (%) of B applied alone” value in the test on Amaranthus retroflexus [1] (acifluorfen-sodium 150 g a.i./ha) is reported as 45.1%; in the test with Amaranthus retroflexus [1] (acifluorfen-sodium 300 g a.i./ha) it was 85.0%; in the test with Chenopodium album (Table 95, 37.5 g a.i./ha), 2.0%; in the test with Chenopodium album (Table 95, 75 g a.i./ha), 13.7%; in the test with Chenopodium album (Table 95, 150 g a.i./ha) it was 45.0%; in the test with Chenopodium album (Table 95, 300 g a.i./ha) it was 81.0%.
For `C[C@@H](Oc1nc(F)c(Cl)c(N)c1Cl)C(=O)OCc1ccco1` [Compound A163], the “Control effect (%) of A applied alone in corresponding dose” value (shortened to “Control effect (%) of A applied alone”) came to 24.1% in the test with Alopecurus japonicus (setting [3]); 44.0% in the test on Alopecurus japonicus (setting [4]); 29.6% with Sinapis arvensis (setting [3]); 47.2% in the test with Sinapis arvensis (setting [4]); 31.7% in the test with Eleusine indica (setting [3]); 56.0% in the test on Eleusine indica (setting [4]). Further, the “Control effect (%) of A applied alone” value in the test with Veronica didyma (setting [3]) is reported as 18.6%; in the test on Veronica didyma (setting [4]), 34.5%; with Conyza Canadensis (setting [3]) it was 39.0%; in the test on Conyza Canadensis (setting [4]) it was 55.8%; in the test on Amaranthus retroflexus [2] (setting [3]), 26.6%; in the test with Amaranthus retroflexus [2] (setting [4]), 53.7%. The pest or weed control at 75 g/ha with Digitaria sanguinalis worked out at 16.6%; in the test with Capsella bursa-pastoris (setting [3]), 41.1%. For the same molecule, the pest or weed control at 150 g/ha in the test on Digitaria sanguinalis stood at 45.4%; in the test with Capsella bursa-pastoris (setting [4]), 60.5%.
On to `COC(=O)[C@@H](C)Oc1nc(F)c(Cl)c(N)c1Cl` [Compound A67], for which the “Control effect (%) of A applied alone” value with Alopecurus japonicus (A 75 g a.i./ha, 20 days) is recorded as 28.7%; with Alopecurus japonicus (A 150 g a.i./ha, 20 days), 52.4%; in the test with Sinapis arvensis (A 75 g a.i./ha, 20 days), 45.7%; in the test on Sinapis arvensis (A 150 g a.i./ha, 20 days), 72.8%; with Eleusine indica (A 75 g a.i./ha, 20 days), 42.5%; in the test with Eleusine indica (A 150 g a.i./ha, 20 days), 75.3%. Also, the “Control effect (%) of A applied alone” value in the test on Veronica didyma (A 75 g a.i./ha, 20 days) is given as 23.2%; in the test with Veronica didyma (A 150 g a.i./ha, 20 days), 43.1%; with Conyza Canadensis (A 75 g a.i./ha, 20 days), 45.9%; in the test on Conyza Canadensis (A 150 g a.i./ha, 20 days), 65.6%; in the test on Amaranthus retroflexus [2] (A 75 g a.i./ha, 20 days) it was 31.7%; with Amaranthus retroflexus [2] (A 150 g a.i./ha, 20 days), 63.9%. For the same molecule, the pest or weed control at 75 g/ha in the test on Digitaria sanguinalis came out at 23.4%; in the test on Capsella bursa-pastoris (A 75 g a.i./ha, 20 days) it was 51.4%. For the same molecule, the pest or weed control at 150 g/ha with Digitaria sanguinalis was determined as 62.2%; in the test on Capsella bursa-pastoris (A 150 g a.i./ha, 20 days), 75.6%.
